Measured values: PMC10860144, “Exploring the Dispersion and Electrostatic Components in Arene–Arene Interactions between Ligands and G4 DNA to Develop G4-Ligands” (Journal of Medicinal Chemistry, 2024)

Tests used:
c-MYC Pu22 G4 DNA [1] = assay: FRET melting assay, c-MYC Pu22 G4 DNA; assay type: binding, human; conditions: c-MYC Pu22 G4 DNA 0.2 μM; for increased thermal stability (ΔTm): 40 equivalences of added compound
Text: The synthesized compounds (2–11) were first analyzed using a Förster resonance energy transfer (FRET) assay (Figure 2A). This assay measures the compounds’ ability to affect the thermal stability of fluorescently labeled DNA, in this case, the c-MYC Pu22 G4 DNA (Table S1). […] The addition of one methyl group to the quinazoline core (3) provides almost twice as strong thermal stability compared to 2. The addition of a second methyl group (4) further increased stabilization, albeit modestly (by 0.5 °C). This slight increase between 3 and 4 could stem from the suboptimal positioning of the added methyl substituent in relation to the guanines on the G4 surface, compared to other positions on the quinazoline ring. […] Furthermore, the methyl-substituted (4) and the methoxy-substituted (6) display a similar G4 stabilization despite the strong electrostatic character of the methoxy substituent compared to the neutral methyl group, which further supports that these interactions are dispersion-driven. This conclusion is further supported by the fact that the replacement of the methoxy group in 6 with chlorine in 7 results in a very similar stabilization as 3, 4, and 6.
Synthetic labeled oligonucleotides for the FRET study were purchased from Eurofins Genomics. Stock solutions were prepared in MQ-water at 100 μM concentration. The sequences used are listed in Supporting Information Table S1. All the oligonucleotides except Pu22 were prefolded in 10 mM lithium cacodylate buffer (pH 7.4), with 10 mM KCl and 90 mM LiCl by heating for 10 min at 95 °C and then cooling in fridge for at least 1 h. Pu22 was folded in 10 mM lithium cacodylate buffer (pH 7.4), with 2 mM KCl and 98 mM LiCl.
The FRET occurs between two dyes (5′-FAM as donor and 3′-TAMRA as acceptor) linked at both extremities of a DNA oligonucleotide. When the oligonucleotides are folded into G4 structures, the donor and acceptor are in proximity, which results in an energy transfer from the donor to the acceptor. This process can be detected by a reduction in the fluorescence emission of the donor. Fluorescence emission of the donor is recovered when the temperature increment triggers the thermal denaturation of the G4 structure. The experiments were performed in a Bio-Rad CFX96 real-time PCR device at temperatures from 10 to 95 °C at 1.5 °C/m heating rate using a 492 nm excitation wavelength and a 516 nm detection wavelength in 96-well plates. […] The stabilization (ΔTm) is calculated from comparison of Tm of the fluorescently labeled oligonucleotide in the presence or absence of the ligand. […]
The fluorescence resonance energy transfer (FRET) occurs between two dyes (5'-FAM as donor and 3'- TAMRA as acceptor) linked at both extremities of a DNA oligonucleotide. […]

c-MYC Pu22 G4 DNA [2] = assay: Microscale thermophoresis (MST), c-MYC Pu22 G4 DNA; assay type: binding, human; conditions: Cy5-labeled c-MYC Pu22 G4 DNA 25 nM; pH 7.4, 100 mM KCl; read-out: apparent Kd (MST)
Method: To evaluate the apparent binding affinities (Kd) for the compound series, we next used microscale thermophoresis (MST) with fluorescently labeled c-MYC Pu22 G4 DNA (Table S1). Overall, the measured MST binding results for compounds 2–11 corresponded well with the results from the FRET assay (Figures 2B and S3).
5′-Cy5 labeled G4 DNAs for this study were purchased from Eurofins Genomics. Stock solutions were prepared in water at 100 μM concentration. The sequences used are listed in Supporting Information Table S1. The G4 DNA sequences were folded in KCl buffer (10 mM phosphate, 100 mM KCl, pH 7.4) by heating at 95 °C for 5 min and then cooling to room temperature. All the experiments were performed in 10 mM phosphate pH 7.4, 100 mM KCl, and 0.05% Tween20. The labeled DNA concentration is held constant at 25 nM, and ligand concentration is varied depending on ligands Kd (16 1:3 dilutions). The samples were loaded into standard MST graded glass capillaries and initial fluorescence intensity of the capillary was measured using Monolith NT.115 (Nano Temper, Germany) with 20% LED power. The change in fluorescence with ligand’s concentrations were plotted in Excel and fitted through nonlinear equation to obtain the binding constants. […]
Microscale Thermophoresis (MST)
5'- Cy5 labelled G4 DNAs for this study were purchased from Eurofins Genomics. Stock solutions were prepared in water at […] concentration. The sequences used are listed in supplementary Table S1. The G4 DNA sequences were folded in KCl buffer (10 mM phosphate, 100 mM KCl, pH 7.4) by heating at 95 °C for 5 min and then cooling to room temperature. All the experiments were performed in 10 mM phosphate pH 7.4, 100 mM KCl, 0.05% Tween20. The labelled DNA concentration is held constant at 25 nM and ligand concentration is varied depending on ligands Kd (sixteen 1:3 dilutions). The samples were loaded into standard MST graded glass capillaries and initial fluorescence intensity of the capillary were measured using Monolith NT.115 (Nano Temper, Germany) with 20% LED power. The change in fluorescence with ligand's concentrations were plotted in Excel and fitted through non-linear equation to obtain the binding constants.
(1 picture or pasted object on this page, not shown here)

Compound | increased thermal stability (ΔTm) (c-MYC Pu22 G4 DNA [1]) [°C] | Kd (c-MYC Pu22 G4 DNA [2]) [nM] | increase in thermal stability (ΔTm) (c-MYC Pu22 G4 DNA [1]; compound 8 μM) [°C]
Cc1cc(NCCCN(C)C)nc(Nc2ncc3ccccc3n2)n1 [Compound 2, N4-(3-(Dimethylamino)propyl)-6-methyl-N2-(quinazolin-2-yl)pyrimidine-2,4-diamine] | 7.5 | 1400 | –
Cc1cc(C)c2nc(Nc3nc(C)cc(NCCCN(C)C)n3)nc(C)c2c1 [Compound 5, N4-(3-(Dimethylamino)propyl)-6-methyl-N2-(4,6,8-trimethylquinazolin-2-yl)pyrimidine-2,4-diamine] | 20 | 50 | –
Cc1cc(C)c2nc(Nc3nc(C)cc(C)n3)nc(C)c2c1 [Compound 27, N-(4,6-Dimethylpyrimidin-2-yl)-4,6,8-trimethylquinazolin-2-amine] | – | 800 | 12
